This experiment is filed under the species Rattus norvegicus. The experiment in a line: Inhibition of rat recombinant geranylgeranyltransferase type I expressed in Escherichia coli assessed as residual enzyme activity for geranylgeranylation of K-Ras4B at 50 uM incubated for 30 mins in presence of [3H]GGPP by scintillation counting assay relative to control.

Consider `Cc1ccc(S(=O)(=O)N2[C@@H](c3cccc(Br)c3)C(C(=O)O)=CC[C@H]2c2ccc(F)cc2)cc1`, for which the Activity came to 72.2%. Consider `Cc1ccc(S(=O)(=O)N2[C@@H](c3ccc(Br)cc3)C(C(=O)O)=CC[C@H]2c2cccc(C)c2)cc1`, for which the Activity worked out at 73.5%.

Consider `COc1ccc(S[C@@H]2C[C@@H](c3ccc(C)cc3)N(S(C)(=O)=O)C[C@H]2C(=O)O)cc1`, for which the Activity is 99%. The value for `COc1cc([C@@H]2C[C@@H](Sc3ccc(Cl)cc3)[C@H](C(=O)O)CN2S(=O)(=O)c2ccc(C)cc2)cc(OC)c1OC` was 102%; that for `COc1ccc([C@@H]2C[C@@H](SC3CCCC3)[C@H](C(=O)O)CN2S(=O)(=O)c2ccc(Cl)cc2)cc1` was 83.1%; that for `COc1cccc([C@@H]2C[C@@H](SCCC(C)C)[C@H](C(=O)O)CN2S(=O)(=O)c2ccc(C)cc2)c1` was 62%. In the case of `COc1ccc([C@@H]2C[C@@H](SCCc3ccccc3)[C@H](C(=O)O)CN2S(=O)(=O)c2ccc(Cl)cc2)cc1`, the Activity was determined as 75.3%. `Cc1ccccc1S(=O)(=O)N1[C@@H](c2ccc(C(C)(C)C)cc2)C(C(=O)O)=CC[C@H]1c1ccc(Cl)cc1`: the Activity turned out to be 97.3%. With `COc1ccc([C@@H]2CC=C(C(=O)O)[C@H](c3cccc(Br)c3)N2S(=O)(=O)c2ccccc2C)cc1`, the Activity amounted to 51.9%. Take `COC(=O)c1ccccc1S(=O)(=O)N1[C@@H](c2ccc(F)cc2)C(C(=O)O)=CC[C@H]1c1ccc(C)cc1`: the Activity worked out at 76.9%. The same measure for `Cc1ccc([C@H]2C(C(=O)O)=CC[C@@H](c3cccs3)N2S(=O)(=O)c2ccc(C)cc2)cc1`: 73.4%.

As to `CCOc1ccc([C@@H]2CC=C(C(=O)O)[C@H](c3cccc(F)c3)N2S(=O)(=O)c2ccc(C)cc2)cc1`, the Activity stood at 87.5%. The value for `Cc1ccc(S(=O)(=O)N2[C@@H](c3cccc(Br)c3)C(C(=O)O)=CC[C@H]2c2cccc(C)c2)cc1` was 39.1%. Regarding `CCCCS[C@@H]1C[C@@H](c2ccc(C)cc2)N(S(C)(=O)=O)C[C@H]1C(=O)O`, the Activity was found to be 104%. Take `CCCCCS[C@@H]1C[C@@H](c2ccc(C)cc2)N(S(=O)(=O)c2ccc(C)cc2)C[C@H]1C(=O)O`: the Activity amounted to 74.3%. For the compound `COc1cc([C@@H]2C[C@@H](SCCC(C)C)[C@H](C(=O)O)CN2S(=O)(=O)c2ccc(C)cc2)cc(OC)c1OC`, the Activity worked out at 106%. With `COc1ccc(S[C@@H]2C[C@@H](c3ccc(C)cc3)N(S(=O)(=O)c3ccccc3C)C[C@H]2C(=O)O)cc1`, the Activity stood at 99%.

On to `CCCCCCS[C@@H]1C[C@@H](c2ccc(OC)cc2)N(S(=O)(=O)c2ccc(C)cc2)C[C@H]1C(=O)O`, for which the Activity worked out at 83.6%. On to `CCOc1ccc([C@@H]2CC=C(C(=O)O)[C@H](c3ccc(Cl)cc3)N2S(=O)(=O)c2ccc(C)cc2)cc1`, for which the Activity was determined as 71.6%. `Cc1ccc(S(=O)(=O)N2C[C@@H](C(=O)O)[C@H](Sc3ccc(Cl)cc3)C[C@H]2c2ccc3c(c2)OCO3)cc1`: the Activity turned out to be 90.9%. As for `COc1ccc([C@@H]2C[C@@H](Sc3ccc(C)cc3)[C@H](C(=O)O)CN2S(=O)(=O)c2ccccc2C)cc1`, the Activity came out at 78.5%. `CC(=O)C1=CC[C@@H](c2ccc(C)cc2)N(S(C)(=O)=O)C1`: the Activity was found to be 108%. As to `CCCCCS[C@@H]1C[C@@H](c2ccc(OC)c(OC)c2)N(S(=O)(=O)c2ccc(C)cc2)C[C@H]1C(=O)O`, the Activity was found to be 109%.

As to `Cc1ccccc1S(=O)(=O)N1[C@@H](c2ccc(Cl)cc2)C(C(=O)O)=CC[C@H]1c1ccc(Cl)cc1`, the Activity stood at 54.4%. For `COc1ccc([C@@H]2CC=C(C(=O)O)[C@H](c3ccc(Cl)cc3)N2S(=O)(=O)c2ccc(C)cc2)cc1OC`, the Activity worked out at 83.2%.

In the case of `COc1cccc([C@@H]2C[C@@H](SCc3ccc(C(C)(C)C)cc3)[C@H](C(=O)O)CN2S(=O)(=O)c2ccc(C)cc2)c1`, the Activity was found to be 39%. For the compound `C=CCS[C@@H]1C[C@@H](c2ccccc2F)N(S(=O)(=O)c2ccc(C)cc2)C[C@H]1C(=O)O`, the Activity came to 53.1%. The value for `COc1cccc([C@@H]2CC=C(C(=O)O)[C@H](c3ccc(F)cc3)N2S(=O)(=O)c2ccc(C)cc2)c1` was 65%. Consider `Cc1ccc(S(=O)(=O)N2[C@@H](c3ccc(F)cc3)C(C(=O)O)=CC[C@H]2c2ccccc2F)cc1`, for which the Activity was 56%.

For the compound `Cc1ccc(S(=O)(=O)N2C[C@@H](C(=O)O)[C@H](Sc3ccccc3)C[C@H]2c2ccc3c(c2)OCO3)cc1`, the Activity was found to be 57.4%. The value for `COc1ccc([C@@H]2C[C@@H](SC3CCCC3)[C@H](C(=O)O)CN2S(=O)(=O)c2ccccc2C)cc1` was 98.2%. Take `Cc1ccc(S(=O)(=O)N2[C@@H](c3cccc(Cl)c3)C(C(=O)O)=CC[C@H]2c2ccc3c(c2)OCO3)cc1`: the Activity turned out to be 73.9%. Consider `COC(=O)c1ccccc1S(=O)(=O)N1[C@@H](c2ccc(C)cc2)C(C(=O)O)=CC[C@H]1c1ccc(C)cc1`, for which the Activity turned out to be 89.4%. `COc1cccc([C@@H]2CC=C(C(=O)O)[C@H](c3cccc(F)c3)N2S(=O)(=O)c2ccc(C)cc2)c1`: the Activity amounted to 82.9%. Turning to `CCCS[C@@H]1C[C@@H](c2ccc(OC)cc2)N(S(=O)(=O)c2ccccc2C)C[C@H]1C(=O)O`, the Activity stood at 88.4%. For `COc1ccc(S[C@@H]2C[C@@H](c3cc(OC)c(OC)c(OC)c3)N(S(=O)(=O)c3ccc(C)cc3)C[C@H]2C(=O)O)cc1`, the Activity is 110%.

With `COc1ccc([C@@H]2C[C@@H](SCC(C)C)[C@H](C(=O)O)CN2S(=O)(=O)c2ccc(Cl)cc2)cc1`, the Activity turned out to be 75.6%. Consider `Cc1ccc(S(=O)(=O)N2[C@@H](c3ccc(F)cc3)C(C(=O)O)=CC[C@H]2c2ccc3c(c2)OCO3)cc1`, for which the Activity was 68.2%. Consider `COc1ccc(S[C@@H]2C[C@@H](c3ccc(Cl)cc3)N(S(=O)(=O)c3ccc(C)cc3)C[C@H]2C(=O)O)cc1`, for which the Activity was determined as 85.5%. For the compound `CCCCS[C@@H]1C[C@@H](c2ccc(OCC)cc2)N(S(=O)(=O)c2ccc(C)cc2)C[C@H]1C(=O)O`, the Activity was 66%. As for `Cc1ccc([C@H]2C(C(=O)O)=CC[C@@H](c3ccc(C)cc3)N2S(=O)(=O)c2ccc(C)cc2)cc1`, the Activity turned out to be 73.6%. In the case of `CCCCS[C@@H]1C[C@@H](c2ccc(Cl)cc2)N(S(=O)(=O)c2ccc(C)cc2)C[C@H]1C(=O)O`, the Activity was determined as 81.5%. In the case of `CCCS[C@@H]1C[C@@H](c2ccc(C)cc2)N(S(=O)(=O)c2ccc(C)cc2)C[C@H]1C(=O)O`, the Activity worked out at 69.8%. Consider `Cc1ccccc1S(=O)(=O)N1[C@@H](c2ccc(Br)cc2)C(C(=O)O)=CC[C@H]1c1ccc(Cl)cc1`, for which the Activity was found to be 86.6%. For `CCCCCCS[C@@H]1C[C@@H](c2cccc(OC)c2)N(S(=O)(=O)c2ccc(C)cc2)C[C@H]1C(=O)O`, the Activity amounted to 80.5%. The same measure for `COc1cccc([C@@H]2CC=C(C(=O)O)[C@H](c3cccc(Br)c3)N2S(=O)(=O)c2ccc(C)cc2)c1`: 55.3%; for `CCS[C@@H]1C[C@@H](c2ccc(C)cc2)N(S(=O)(=O)c2ccc(C)cc2)C[C@H]1C(=O)O`: 90.1%. For `CCS[C@@H]1C[C@@H](c2cccc(OC)c2)N(S(=O)(=O)c2ccc(C)cc2)C[C@H]1C(=O)O`, the Activity turned out to be 84.8%.

For the compound `COc1ccc([C@@H]2C[C@@H](SC3CCCC3)[C@H](C(=O)O)CN2S(=O)(=O)c2ccc(C)cc2)cc1`, the Activity was 91.5%.

Consider `COc1ccc([C@@H]2CC=C(C(=O)O)[C@H](c3cccc(C)c3)N2S(=O)(=O)c2ccccc2C)cc1`, for which the Activity was found to be 61.3%.

Values taken from ChEMBL document CHEMBL4421722, “Inhibitors of protein prenyltransferases” (2013).
